Measurements reported in patent US9351955B2, “Compounds and pharmaceutical compositions thereof for the treatment of cystic fibrosis” (Galapagos NV, priority 2013, dated 2016).

Columns and labels:
CFTR ΔF508 mutant = biological target: T1, CFTR ΔF508 mutant (Homo sapiens, UniProt P13569, DEL508-508); experiment: YFP-halide influx assay for the CFTR-ΔF508 mutation (384 well, CFBE41o- cells, FDSS/μCell); type: cell-based; details: forskolin 10.67 μM, fluorescence after 36 seconds, read-out: EC50 measured by YFP-halide influx assay for the CFTR-ΔF508
T1 construct: expressed in transfected cells; host or cells: CFBE41o- (adenoviral transduction)
T1 sequence (P13569 with tags, fused parts or gaps DEL508-508): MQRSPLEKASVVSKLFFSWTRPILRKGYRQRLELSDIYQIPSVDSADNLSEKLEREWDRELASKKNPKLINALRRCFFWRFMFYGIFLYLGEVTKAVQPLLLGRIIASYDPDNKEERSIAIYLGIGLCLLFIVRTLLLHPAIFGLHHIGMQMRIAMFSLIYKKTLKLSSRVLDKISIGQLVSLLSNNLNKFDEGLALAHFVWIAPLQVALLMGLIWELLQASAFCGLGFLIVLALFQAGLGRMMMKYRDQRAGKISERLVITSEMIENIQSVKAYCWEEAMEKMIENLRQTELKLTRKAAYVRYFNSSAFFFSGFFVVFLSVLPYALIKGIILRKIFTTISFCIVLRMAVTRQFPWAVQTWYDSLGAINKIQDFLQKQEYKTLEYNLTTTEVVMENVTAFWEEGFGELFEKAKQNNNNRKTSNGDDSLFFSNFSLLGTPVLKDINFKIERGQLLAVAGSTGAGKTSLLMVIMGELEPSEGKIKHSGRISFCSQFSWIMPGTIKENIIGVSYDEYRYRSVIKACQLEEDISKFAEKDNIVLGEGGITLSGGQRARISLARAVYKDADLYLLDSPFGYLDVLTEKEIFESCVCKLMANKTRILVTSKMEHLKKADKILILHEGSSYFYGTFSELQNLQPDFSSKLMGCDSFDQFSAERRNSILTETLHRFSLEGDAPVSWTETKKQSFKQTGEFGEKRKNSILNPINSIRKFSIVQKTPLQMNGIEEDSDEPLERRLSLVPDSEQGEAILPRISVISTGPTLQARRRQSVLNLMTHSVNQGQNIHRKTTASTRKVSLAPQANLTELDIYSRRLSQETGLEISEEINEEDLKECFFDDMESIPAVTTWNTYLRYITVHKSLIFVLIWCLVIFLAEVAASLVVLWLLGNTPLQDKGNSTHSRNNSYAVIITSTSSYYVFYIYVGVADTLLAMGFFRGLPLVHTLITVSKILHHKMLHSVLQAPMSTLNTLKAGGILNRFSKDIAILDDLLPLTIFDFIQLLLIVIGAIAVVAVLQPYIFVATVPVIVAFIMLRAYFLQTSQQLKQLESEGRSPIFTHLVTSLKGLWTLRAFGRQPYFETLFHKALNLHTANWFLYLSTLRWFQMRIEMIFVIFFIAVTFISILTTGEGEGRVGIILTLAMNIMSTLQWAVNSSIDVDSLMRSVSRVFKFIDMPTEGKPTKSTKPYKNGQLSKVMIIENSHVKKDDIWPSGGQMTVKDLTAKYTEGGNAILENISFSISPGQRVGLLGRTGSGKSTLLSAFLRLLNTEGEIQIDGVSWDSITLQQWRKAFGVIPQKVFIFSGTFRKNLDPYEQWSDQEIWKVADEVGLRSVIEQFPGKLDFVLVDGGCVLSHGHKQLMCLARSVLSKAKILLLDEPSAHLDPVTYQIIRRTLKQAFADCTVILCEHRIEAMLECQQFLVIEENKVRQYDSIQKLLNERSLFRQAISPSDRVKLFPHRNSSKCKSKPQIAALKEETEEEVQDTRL
Source text: 6.2. YFP-Halide Influx Assay for the CFTR-ΔF508 Mutation
The YFP halide influx assay measures the functionality of the cystic fibrosis Transmembrane Conductance regulator (CFTR) channels in the cystic fibrosis bronchial epithelium cell line CFBE41o-. The assay is used to evaluate the capacity of compounds to increase the open probability of existing CFTR channels in the membrane. It makes use of the observation that the yellow fluorescent protein (YFP) variant YFP H148Q, I152L has its fluorescence substantially quenched by halide ions like Cl— and I— (Galietta et al., 2001; Nagai et al., 2002).
For this purpose, CFBE410-cells are seeded in 384 well plates (3000 CFBE cells/well). One day after seeding, the CFBE cells are transduced with adenoviral vectors that direct the expression of the CFTR ΔF508 mutant and of the YFP reporter. Cells are incubated at 27° C., 5% CO2 for 24 hours so as to allow for the proper folding and migration to the membrane of the CFTR channel or treated with a CFTR modulator during 24 h at 37° C.
(§1) The I— induced quenching of fluorescence is recorded on an immediately after injection of I— for 2 min on an FDSS/μCell (Hamamatsu). The capacity of a compound to increase the channel opening is directly correlated with the decrease in fluorescence, and is expressed as (1−(fluorescence after 36 seconds (F)/fluorescence before injection (F0))) and an EC50 can be derived from a (1−F/F0) vs compound concentration plot.

CFTR G551D mutant = biological target: T2, CFTR G551D mutant (Homo sapiens, UniProt P13569, G551D); experiment: YFP-halide influx assay for the CFTR-G551D mutation (HEK293 cells); type: cell-based; details: HEK293 cells expressing CFTR G551D and YFP reporter; forskolin 10.67 μM; read-out: EC50 measured by YFP-halide influx assay for the CFTR-G551D
T2 construct: expressed in transfected cells; host or cells: HEK293 (reverse transfection with plasmids)
T2 sequence (P13569 whole entry G551D): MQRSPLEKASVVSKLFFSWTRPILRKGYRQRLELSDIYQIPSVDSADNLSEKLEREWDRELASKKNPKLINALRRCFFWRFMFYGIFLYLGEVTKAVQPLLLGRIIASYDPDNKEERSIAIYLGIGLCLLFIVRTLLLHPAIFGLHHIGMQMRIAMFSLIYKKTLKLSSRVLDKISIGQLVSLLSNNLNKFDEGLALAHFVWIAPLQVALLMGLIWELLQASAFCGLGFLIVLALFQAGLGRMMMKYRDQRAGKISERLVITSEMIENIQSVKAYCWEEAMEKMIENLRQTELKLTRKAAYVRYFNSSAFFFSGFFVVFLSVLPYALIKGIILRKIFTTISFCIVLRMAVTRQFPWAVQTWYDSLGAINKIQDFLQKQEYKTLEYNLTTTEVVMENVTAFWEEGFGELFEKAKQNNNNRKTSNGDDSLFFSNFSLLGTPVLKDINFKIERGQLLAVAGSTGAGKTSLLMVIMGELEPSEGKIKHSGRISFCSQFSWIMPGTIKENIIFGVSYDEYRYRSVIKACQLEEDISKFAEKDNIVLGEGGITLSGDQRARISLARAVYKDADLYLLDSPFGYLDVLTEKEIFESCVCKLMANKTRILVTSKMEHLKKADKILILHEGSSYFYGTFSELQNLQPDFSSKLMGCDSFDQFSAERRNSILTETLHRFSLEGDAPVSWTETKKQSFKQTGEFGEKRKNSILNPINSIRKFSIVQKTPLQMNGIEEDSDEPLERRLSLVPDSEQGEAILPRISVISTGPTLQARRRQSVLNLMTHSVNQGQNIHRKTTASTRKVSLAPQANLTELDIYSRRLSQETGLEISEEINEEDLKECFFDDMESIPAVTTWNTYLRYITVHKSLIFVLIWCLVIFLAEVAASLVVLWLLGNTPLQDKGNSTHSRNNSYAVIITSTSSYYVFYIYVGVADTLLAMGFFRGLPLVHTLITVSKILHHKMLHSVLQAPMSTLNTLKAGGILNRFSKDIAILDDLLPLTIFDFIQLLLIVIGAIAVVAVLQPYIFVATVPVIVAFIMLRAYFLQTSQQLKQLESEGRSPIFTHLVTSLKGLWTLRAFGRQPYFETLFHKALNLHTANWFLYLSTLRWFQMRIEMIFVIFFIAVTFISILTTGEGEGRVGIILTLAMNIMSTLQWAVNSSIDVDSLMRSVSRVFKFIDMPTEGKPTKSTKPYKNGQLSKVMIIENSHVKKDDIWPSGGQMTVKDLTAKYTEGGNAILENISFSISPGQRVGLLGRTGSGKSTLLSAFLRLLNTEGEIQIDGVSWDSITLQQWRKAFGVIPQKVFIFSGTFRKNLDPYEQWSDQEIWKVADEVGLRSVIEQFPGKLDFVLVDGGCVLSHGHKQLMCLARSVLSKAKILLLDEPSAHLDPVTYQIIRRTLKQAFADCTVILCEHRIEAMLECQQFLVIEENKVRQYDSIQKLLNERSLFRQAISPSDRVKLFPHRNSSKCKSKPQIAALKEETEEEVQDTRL
Source text: 6.3. YFP-Halide Influx Assay for the CFTR-G551D Mutation
The YFP halide influx assay measures the functionality of the cystic fibrosis Transmembrane Conductance regulator (CFTR) channels. The assay is used to evaluate the capacity of compounds to increase the channel opening of existing mutant CFTR channels in the membrane. It makes use of the observation that the yellow fluorescent protein (YFP) variant YFP H148Q, I152L, F47L has its fluorescence substantially quenched by halide ions like Cl^− and I^−. (Galietta et al., 2001)
For this purpose, HEK293-cells are seeded in 96 well plates. During seeding, the cells are reverse-transfected with plasmid vectors that direct the expression of the CFTR G551D mutant and of the YFP reporter. Cells are incubated at 37° C., 5% CO2 for 24 hours so as to allow for sufficient expression of the CFTR protein.
as §1, with “I^−-induced” for “I— induced”, “recorded” for “recorded on an”, “I^−” for “I—”, “7 seconds.” for “2 min on an FDSS/μCell (Hamamatsu).”, “7” for “36”

EC50 (CFTR ΔF508 mutant)	EC50 (CFTR G551D mutant)	Compound
23.9 nM	3100 nM	CC1(C)Cc2c(sc(NC(=O)c3n[nH]cc3C3COCCO3)c2C(N)=O)C(C)(C)O1 (single isomer, unassigned) [Compound 111, N-(3-carbamoyl-5,5,7,7-tetramethyl-4H-thieno[2,3-c]pyran-2-yl)-4-[1,4-dioxan-2-yl]-1H-pyrazole-3-carboxamide]
194 nM	3330 nM	Cc1nc(C(=O)Nc2sc3c(c2C(N)=O)CC(C)(C)OC3(C)C)co1 [Compound 125, N-(3-carbamoyl-5,5,7,7-tetramethyl-4H-thieno[2,3-c]pyran-2-yl)-2-methyl-oxazole-4-carboxamide]
42.7 nM	3330 nM	CC(C)C(O)CC(=O)Nc1sc2c(c1C(N)=O)CC(C)(C)OC2(C)C (stereo not drawn) [Compound 67, 2-[(3-hydroxy-4-methyl-pentanoyl)amino]-5,5,7,7-tetramethyl-4H-thieno[2,3-c]pyran-3-carboxamide]
113 nM	2780 nM	CC1(C)Cc2c(sc(NC(=O)C(CO)CC3CC3)c2C(N)=O)C(C)(C)O1 (single isomer, unassigned) [Compound 97, 2-[[2-(cyclopropylmethyl)-3-hydroxy-propanoyl]amino]-5,5,7,7-tetramethyl-4H-thieno[2,3-c]pyran-3-carboxamide]
57 nM	577 nM	CCCCc1ccc(C(=O)Nc2sc3c(c2C(N)=O)CC(C)(C)OC3(C)C)c(=O)[nH]1 [Compound 139, 6-butyl-N-(3-carbamoyl-5,5,7,7-tetramethyl-4H-thieno[2,3-c]pyran-2-yl)-2-oxo-1H-pyridine-3-carboxamide]
93.5 nM	3330 nM	CC1(C)Cc2c(sc(NC(=O)C(CO)C(C)(C)C)c2C(N)=O)C(C)(C)O1 (stereo not drawn) [Compound 85, 2-[[2-(hydroxymethyl)-3,3-dimethyl-butanoyl]amino]-5,5,7,7-tetramethyl-4H-thieno[2,3-c]pyran-3-carboxamide]
239 nM	6660 nM	Cn1cc(C(=O)Nc2sc3c(c2C(N)=O)CC(C)(C)OC3(C)C)c(C(F)F)n1 [Compound 117, N-(3-carbamoyl-5,5,7,7-tetramethyl-4H-thieno[2,3-c]pyran-2-yl)-3-(difluoromethyl)-1-methyl-pyrazole-4-carboxamide]
77.3 nM	2290 nM	CC1(C)Cc2c(sc(NC(=O)c3cocn3)c2C(N)=O)C(C)(C)O1 [Compound 129, N-(3-carbamoyl-5,5,7,7-tetramethyl-4H-thieno[2,3-c]pyran-2-yl)oxazole-4-carboxamide]
41.7 nM	2380 nM	CC1(C)Cc2c(sc(NC(=O)c3cccc(C(F)F)c3)c2C(N)=O)C(C)(C)O1 [Compound 122, 2-[[3-(difluoromethyl)benzoyl]amino]-5,5,7,7-tetramethyl-4H-thieno[2,3-c]pyran-3-carboxamide]
34.2 nM	3330 nM	CC1(C)Cc2c(sc(NC(=O)CC(O)C(F)(F)F)c2C(N)=O)C(C)(C)O1 (stereo not drawn) [Compound 69, 5,5,7,7-tetramethyl-2-[(4,4,4-trifluoro-3-hydroxy-butanoyl)amino]-4H-thieno[2,3-c]pyran-3-carboxamide]
77.5 nM	2790 nM	CC1(C)Cc2c(sc(NC(=O)c3ccccc3OC(F)F)c2C(N)=O)C(C)(C)O1 [Compound 113, 2-[[2-(difluoromethoxy)benzoyl]amino]-5,5,7,7-tetramethyl-4H-thieno[2,3-c]pyran-3-carboxamide]
28.3 nM	1340 nM	CC1(C)Cc2c(sc(NC(=O)[C@]3(CO)CC3(C)C)c2C(N)=O)C(C)(C)O1 [Compound 99, 2-[[(1R)-1-(hydroxymethyl)-2,2-dimethyl-cyclopropanecarbonyl]amino]-5,5,7,7-tetramethyl-4H-thieno[2,3-c]pyran-3-carboxamide]
3.23 nM	6660 nM	CC1(C)Cc2c(sc(NC(=O)C(C)(O)C(C)(C)C)c2C(N)=O)C(C)(C)O1 (stereo not drawn) [Compound 81, 2-[(2-hydroxy-2,3,3-trimethyl-butanoyl)amino]-5,5,7,7-tetramethyl-4H-thieno[2,3-c]pyran-3-carboxamide]
25.4 nM	3330 nM	CC1(C)Cc2c(sc(NC(=O)C(CO)CC3CC3)c2C(N)=O)C(C)(C)O1 (stereo not drawn) [Compound 84, 2-[[2-(cyclopropylmethyl)-3-hydroxy-propanoyl]amino]-5,5,7,7-tetramethyl-4H-thieno[2,3-c]pyran-3-carboxamide]
4.32 nM	3260 nM	CC(C)(C)CC(O)C(=O)Nc1sc2c(c1C(N)=O)CC(C)(C)OC2(C)C (single isomer, unassigned) [Compound 109, 2-[[2-hydroxy-4,4-dimethyl-pentanoyl]amino]-5,5,7,7-tetramethyl-4H-thieno[2,3-c]pyran-3-carboxamide]
138 nM	2030 nM	Cc1ncoc1C(=O)Nc1sc2c(c1C(N)=O)CC(C)(C)OC2(C)C [Compound 135, N-(3-carbamoyl-5,5,7,7-tetramethyl-4H-thieno[2,3-c]pyran-2-yl)-4-methyl-oxazole-5-carboxamide]
62.1 nM	586 nM	CC1(C)Cc2c(sc(NC(=O)c3ccnn3C(F)F)c2C(N)=O)C(C)(C)O1 [Compound 115, N-(3-carbamoyl-5,5,7,7-tetramethyl-4H-thieno[2,3-c]pyran-2-yl)-2-(difluoromethyl)pyrazole-3-carboxamide]
92.5 nM	5550 nM	CC(C)C(O)C(=O)Nc1sc2c(c1C(N)=O)CC(C)(C)OC2(C)C (single isomer, unassigned) [Compound 51, 2-[[2-hydroxy-3-methyl-butanoyl]amino]-5,5,7,7-tetramethyl-4H-thieno[2,3-c]pyran-3-carboxamide]
84 nM	3330 nM	CC1(C)Cc2c(sc(NC(=O)CO)c2C(N)=O)C(C)(C)O1 [Compound 66, 2-[(2-hydroxyacetyl)amino]-5,5,7,7-tetramethyl-4H-thieno[2,3-c]pyran-3-carboxamide]
27 nM	1560 nM	COCCCc1c[nH]nc1C(=O)Nc1sc2c(c1C(N)=O)CC(C)(C)OC2(C)C [Compound 65, N-(3-carbamoyl-5,5,7,7-tetramethyl-4H-thieno[2,3-c]pyran-2-yl)-4-(3-methoxypropyl)-1H-pyrazole-3-carboxamide]
120 nM	3200 nM	CC1(C)Cc2c(sc(NC(=O)C(CO)C(C)(C)C)c2C(N)=O)C(C)(C)O1 (stereo not drawn) [Compound 90, 2-[[2-(hydroxymethyl)-3,3-dimethyl-butanoyl]amino]-5,5,7,7-tetramethyl-4H-thieno[2,3-c]pyran-3-carboxamide]
128 nM	2660 nM	Cn1ncc(C(=O)Nc2sc3c(c2C(N)=O)CC(C)(C)OC3(C)C)c1C(F)(F)F [Compound 137, N-(3-carbamoyl-5,5,7,7-tetramethyl-4H-thieno[2,3-c]pyran-2-yl)-1-methyl-5-(trifluoromethyl)pyrazole-4-carboxamide]
78.6 nM	2020 nM	CC1(C)Cc2c(sc(NC(=O)c3cncs3)c2C(N)=O)C(C)(C)O1 [Compound 134, N-(3-carbamoyl-5,5,7,7-tetramethyl-4H-thieno[2,3-c]pyran-2-yl)thiazole-5-carboxamide]
190 nM	2860 nM	COCCOc1c[nH]nc1C(=O)Nc1sc2c(c1C(N)=O)CC(C)(C)OC2(C)C [Compound 100, N-(3-carbamoyl-5,5,7,7-tetramethyl-4H-thieno[2,3-c]pyran-2-yl)-4-(2-methoxyethoxy)-1H-pyrazole-3-carboxamide]
